Assay: storage stability of trans-resveratrol under controlled temperature and humidity
Type: physicochemical
Settings: stored at 10.0° C. (50 degrees F.) to approximately 30° C. (86 degrees F.), humidity less than 35 percent
Method: (50 degrees F.) to approximately 30° C.
Twenty five (25) kilograms of fine powder consisting of pomace, vines and leaves is stored in a cool, dark, dry location for shipping to the dietary supplement manufacturing facility. The temperature range of the storage area is in a range of between approximately 10.0° C. (50 degrees F.) to approximately 30° C. (86 degrees F.) and the dry location has a humidity level of less than 35 percent water vapor in the air.

With Oc1ccc(/C=C/c2cc(O)cc(O)c2)cc1 [trans-resveratrol] the “stability during storage and processing” value was “remain stable” and the “stability during storage and processing” value (listed as organic trans-resveratrol) was “remains a stable compound”.

From patent US9125824B1 (InnoVitamin Organics, LLC, priority 2010, dated 2015)
